Values quoted from earlier work, collected in patent US20220193002A1, “PROCESS FOR THE PREPARATION OF BAKUCHIOL COMPOSITION SUBSTANTIALLY FREE OF FURANOCOUMARIN IMPURITIES” (K V Natural Ingredients PVT LTD, priority 2020, published 2022).

Test system: S. mutans
Details: cell growth inhibited in a concentration dependent manner; complete prevention of growth

Compound: C=C[C@@](C)(/C=C/c1ccc(O)cc1)CCC=C(C)C [bakuchiol, 4-[(1E,3S)-3-ethenyl-3,7-dimethylocta-1,6-dienyl]phenol]
- concentration at which the growth of S. mutans was completely prevented: 20 µg/mL
